Here are results for one compound from patent publication US11173177B2, “Compounds for treatment of lipoprotein metabolism disorders” (Aarhus Universitet, priority 2016, dated 2021).

The target in assay [1] is PCSK9. The assay can be described thus: BIACORE interference assay, PCSK9 binding to heparin-albumin sensor chip. Set-up: species or system human. The following applies: 100 nM PCSK9 preincubated with 0 nM-10 μM compound; read-out: estimated IC50, inhibition of PCSK9 binding to heparin-albumin sensor chip. The procedure:
BIACORE analysis using sensor chips coupled with either albumin (Sigma A4503) or heparin-albumin (Sigma H0403) were used to evaluate the interaction between PCSK9 and heparin. […] An interference assay using BIACORE analysis was implemented to assess the binding between compound (X) and PCSK9. Solutions of 100 nM PCSK9 was incubated with increasing concentrations of compound (X) (0 nM, 10 nM, 100 nM, 1 μM and 10 μM), the solutions were then infused over the sensor chip coupled with heparin-albumin.

The subject of a further assay is LDLR in HepG2 cells. As to the kind of experiment: LDLR levels in HepG2 cells by Western blotting and densitometry. It is filed as cell-based, human. The following applies: 0-200 μg/ml, 24 h. On the procedure:
In the heparin mimetic class of modified polysaccharides compounds dextran sulfate (FIG. 9 A-B) and pentosan (FIG. 9 D-E) were tested in a HepG2 based in vitro cell assay. After overnight incubation LDLR levels were evaluated by Western blotting showing a concentration dependent increase of LDLR upon treatment with dextran sulfate (0-200 μg/ml) with up to 3-fold up regulation of LDLR.
Control cells were incubated without additives (negative control) or 500 μg/ml heparin (positive control). LDLR levels were calculated with respect to the level found in lysate of HepG2 cells incubated without additives.
HepG2 cells were incubated with 0-200 μg/ml of heterogeneously sulfated hexamer or 18-mer oligosaccharides containing on average 1,3 sulfates per disaccharide. After over night incubation cells were harvested and the cellular level of LDLR was analyzed by Western blotting (FIG. 17 A) and quantified by densitometry (FIG. 17 B).
Background: Immunoblotting shows a protein as a band on a membrane.

In a further assay the test system is liver LDLR. As to the kind of experiment: Liver LDLR levels in mice after intravenous PCSK9 injection (Western blot). The assay is classed as in vivo. The following applies: inhibitor i.v. 60 min prior PCSK9 (10 μg); compound (X) 0.13 mg/kg, Evolocumab 8 mg/kg; PCSK9 without inhibitor: 50% decrease. On the procedure: To test the effect of enzymatic removal of heparan sulfate GAGs on PCSK9 activity in vivo 10-12 week-old male BALB6/cJRj mice were infused with heparinase I (30 U) administered through a tail vein catheter 5 min prior injection of PCSK9 (10 μg). In control mice the heparinase injection and/or the PCSK9 injection were replaced with an injection of 0.9% saline. During heparinase infusion, mice were lightly anaesthetized with isoflurane continuously administered through a mask.
Mice (BALB6/cJRj) were subjected to a single intravenous administration (tail vein) of 10 μg human recombinant PCSK9 alone or in combination with heparin (50 U). One hour post injection mice were sacrificed and liver tissues were collected.
Mice (BALB6/cJRj) were subjected to a single intravenous (tail vein) administration of 3.2 μg compound (X) 60 minutes prior injection with PCSK9 (10 μg). PCSK9 induced degradation of liver LDLR was assessed 60 min post PCSK9 injection by Western blotting and quantified by densitometry (FIG. 16 C). Control mice were injected with NaCl or control inhibitor Evolocumab (200 μg), commercially available PCSK9 inhibitory monoclonal antibody (Amgen). LDLR levels were calculated with respect to LDLR level in mice injected with NaCl alone.

Assay [2] has as its system PCSK9. As to the kind of experiment: Heparin-sepharose binding assay (free PCSK9 by ELISA). Further details: species or system human. The following applies: 500-200 μg/ml, PCSK9 1 μg/ml, over night 4° C. On the procedure: Compound (X) inhibition of PCSK9 binding to Heparin/Heparan sulfate was tested in a Heparin-sepharose binding assay. Heparin-sepharose beads (2 μl) were incubated with PCSK9 (1 μg/ml) with increasing concentrations of compound (X) (0-500 μg/ml) in a total volume of 150 μl 10 mM NaH2PO4. After over night rotation at 4° C., beads were pelleted and the concentration of non-precipitated PCSK9 (free PCSK9) in supernatant was evaluated by ELISA. The concentration of free PCSK9 in each sample was normalised to the PCSK9 level in a sample without Heparin-sepharose beads (input control). As positive control was included a sample with soluble heparin (5 mg/ml) (FIG. 16 A).
Sucrose octasulfate (FIG. 21A) inhibition of PCSK9 binding to Heparin/Heparan sulfate was tested in a Heparin-sepharose binding assay. Heparin-sepharose beads (2 μl) were incubated with PCSK9 (1 μg/ml) and increasing concentrations of sucrose octasulfate (0-500 μg/ml) in a total volume of 150 μl 10 mM NaH2PO4. After over night rotation at 4° C., beads were pelleted and the concentration of non-precipitated PCSK9 (free PCSK9) in supernatant was evaluated by ELISA). Percent free PCSK9 was calculated with respect to the PCSK9 concentration in a sample without Heparin-sepharose beads (input control) (FIG. 21B).
(ELISA stands for enzyme-linked immunosorbent assay.)

Broadly, the IC50 is the concentration needed to halve the response being measured.

Structures are written as SMILES.

Take `CC(C)CCC[C@@H](C)[C@H]1CC[C@H]2[C@@H]3CC[C@H]4C[C@@H](O[C@@H]5O[C@H](COS(=O)(=O)[O-])[C@@H](O[C@H]6O[C@H](COS(=O)(=O)[O-])[C@@H](O[C@H]7O[C@H](COS(=O)(=O)[O-])[C@@H](O[C@H]8O[C@H](COS(=O)(=O)[O-])[C@@H](OS(=O)(=O)[O-])[C@H](OS(=O)(=O)[O-])[C@H]8OS(=O)(=O)[O-])[C@H](OS(=O)(=O)[O-])[C@H]7OS(=O)(=O)[O-])[C@H](OS(=O)(=O)[O-])[C@H]6OS(=O)(=O)[O-])[C@H](OS(=O)(=O)[O-])[C@H]5OS(=O)(=O)[O-])CC[C@]4(C)[C@H]3CC[C@]12C.[Na+].[Na+].[Na+].[Na+].[Na+].[Na+].[Na+].[Na+].[Na+].[Na+].[Na+].[Na+].[Na+]` [compound (X), 3β-cholestanyl 2,3,4,6-tetra-O-sulfo-α-D-glucopyranosyl-(1→4)-2,3,6-tri-O-sulfo-α-D-glucopyranosyl-(1→4)-2,3,6-tri-O-sulfo-α-Dglucopyranosyl-(1→4)-2,3,6-tri-O-sulfo-β-D-glucopyranoside tridecasodium salt]: the IC50 on PCSK9 [1] is approximately 50 nM. Besides, in the assay on LDLR in HepG2 cells, the “LDLR levels with respect to cells incubated without additives” value is on record as “up to 12 times” and the “LDLR levels, concentration dependence” value was “concentration dependent increased levels of LDLR”. Also, the “decrease of liver LDLR level after PCSK9 injection” value with liver LDLR is “no decrease was observed”. Besides, the “inhibition of PCSK9 interaction with Heparin-sepharose” value with PCSK9 [2] is recorded as “completely inhibited”.
